Test results from patent publication US11000033B2, “Ketone or oxime compound, and herbicide” (NISSAN CHEMICAL CORPORATION, priority 2014, dated 2021).

Legend:
Type in all cases: in vivo
[1] = test system: Scirpus juncoides; test: Test Example 1: herbicidal activity, application before weed generation in submerged conditions (symbol B); details: application herbicide amount 320 g/ha
In short: (§1)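 Greenhouse growth at 25–30 °C lasted 3 weeks after treatment, when each weed was graded 0–5 by herbicidal ratio. Treatment was a diluted emulsion applied to the water surface of 4 cm-submerged alluvial soil on the sowing day.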

[2] = test system: Monochoria vaginalis; test: Test Example 1: herbicidal activity, application before weed generation in submerged conditions (symbol C); details: application herbicide amount 320 g/ha
In short: as §1

[3] = test system: Scirpus juncoides; test: Test Example 2: herbicidal activity, application during weed generation in submerged conditions (symbol B); details: Table 23; application herbicide amount 320 g/ha; grade 0-5 by criteria of Test Example 1
In short: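 Visual herbicidal ratings, taken three weeks after dosing, reflect post-emergence water-surface application to seedlings at one to two leaves. Conditions: co-sown weeds in alluvial soil flooded to 4 cm, greenhouse held at 25° C. to 30° C.; compound given as water-diluted emulsion at a fixed herbicide amount.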

[4] = test system: Avena fatua; test: Test Example 4: herbicidal effect by soil treatment (symbol I); details: application herbicide amount 320 g/ha
In short: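 Seeds were sown in sterilized diluvial soil, covered with about 1.5 cm of soil, and the soil surface was sprayed with a water-diluted emulsion of the compound at a predetermined rate. Plants grew in a greenhouse at 25° C. to 30° C.; effects were scored visually 3 weeks after application.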

[5] = test system: corn; test: Test Example 4: effect on crop by soil treatment (symbol c); details: application herbicide amount 320 g/ha
In short: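 Plants are raised in a greenhouse (25° C. to 30° C.) from spot-sown seed, which sits under about 1.5 cm of sterilized diluvial soil in a box shared with weed species.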

[6] = test system: rice; test: Test Example 4: effect on crop by soil treatment (symbol b); details: application herbicide amount 320 g/ha
In short: (§2)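 Crop seed is sown in spots together with several weed species in a box of sterilized diluvial soil. It is covered by about 1.5 cm of soil and kept in a greenhouse held between 25° C. and 30° C.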

[7] = test system: rapeseed; test: Test Example 4: effect on crop by soil treatment (symbol g); details: application herbicide amount 320 g/ha
In short: as §2

[8] = test system: Digitaria ciliaris; test: Test Example 5: herbicidal effect by foliage application, plastic box (symbol F); details: 320 g/ha, 3 weeks after application
In short: (§3)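 Herbicide, formulated as an emulsion and diluted in water, is sprayed onto the aerial parts of 14-day seedlings. These were grown at 25° C. to 30° C. in sterilized diluvial soil; effects are graded after 3 weeks.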

[9] = test system: Lolium multiflorum Lam.; test: Test Example 5: herbicidal effect by foliage application, plastic box (symbol K); details: 320 g/ha, 3 weeks after application
In short: as §3

[10] = test system: Chenopodium album; test: Test Example 5: herbicidal effect by foliage application, plastic box (symbol O); details: 320 g/ha, 3 weeks after application
In short: as §3

[11] = test system: Veronica persica; test: Test Example 5: herbicidal effect by foliage application, plastic box (symbol R); details: 320 g/ha, 3 weeks after application
In short: as §3

[12] = test system: corn; test: Test Example 5: effect on crop by foliage application, plastic box (symbol c); details: 320 g/ha, 3 weeks after application
In short: (§4)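 Soil: sterilized diluvial. Container: plastic box, 21 × 13 cm, 7 cm deep. Sowing: spot-like, ~1.5 cm cover. Growth: greenhouse, 25° C. to 30° C.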

[13] = test system: soybean; test: Test Example 5: effect on crop by foliage application, plastic box (symbol d); details: 320 g/ha, 3 weeks after application
In short: as §4

| Compound | Herbicidal effect grade, B: Scirpus juncoides [1] | Herbicidal effect grade, C: Monochoria vaginalis [2] | Herbicidal effect grade, B: Scirpus juncoides [3] | I: Avena fatua, herbicidal effect grade [4] | c: corn, effect on crop grade [5] | b: directly sowed rice plant, effect on crop grade [6] | g: rapeseed, effect on crop grade [7] | F: Digitaria ciliaris, herbicidal effect (criteria of Test Example 1) [8] | K: Lolium multiflorum Lam., herbicidal effect (criteria of Test Example 1) [9] | O: Chenopodium album, herbicidal effect (criteria of Test Example 1) [10] | R: Veronica persica, herbicidal effect (criteria of Test Example 1) [11] | c: corn, effect on crop (criteria of Test Example 1) [12] | d: soybean, effect on crop (criteria of Test Example 1) [13] | Herbicidal effect grade, I: Avena fatua [4] | Effect on crop grade, c: corn [5] | Effect on crop grade, b: directly sowed rice plant [6] | Effect on crop grade, g: rapeseed [7] | further results |
| --- | --- | --- | --- | --- | --- | --- | --- | --- | --- | --- | --- | --- | --- | --- | --- | --- | --- | --- |
| CON=C(C)CC1CC(OC(=O)C(C)(C)Oc2ccccc2)=C(c2c(C)cc(C)cc2C)C1=O (centres unmarked) [1-017] | 5 (Herbicidal ratio of 90% or more (almost completely withered)) | 2 (Herbicidal ratio of 20% or higher and lower than 40%) | 4 (Herbicidal ratio of 70% or higher and lower than 90%) |  |  |  |  |  |  |  |  |  |  |  |  |  |  | I (Avena fatua) herbicidal effect grade [4]: 5 (Herbicidal ratio of 90% or more (almost completely withered)); c (corn) effect on crop grade [5]: 4 (Herbicidal ratio of 70% or higher and lower than 90%); b (directly sowed rice plant) effect on crop grade [6]: 5 (Herbicidal ratio of 90% or more (almost completely withered)); g (rapeseed) effect on crop grade [7]: 4 (Herbicidal ratio of 70% or higher and lower than 90%); F: Digitaria ciliaris, herbicidal effect grade [8]: 5 (Herbicidal ratio of 90% or more (almost completely withered)); K: Lolium multiflorum Lam., herbicidal effect grade [9]: 5 (Herbicidal ratio of 90% or more (almost completely withered)); O: Chenopodium album, herbicidal effect grade [10]: 2 (Herbicidal ratio of 20% or higher and lower than 40%); R: Veronica persica, herbicidal effect grade [11]: 3 (Herbicidal ratio of 40% or higher and lower than 70%); c: corn, effect on crop grade [12]: 4 (Herbicidal ratio of 70% or higher and lower than 90%); d: soybean, effect on crop grade [13]: 4 (Herbicidal ratio of 70% or higher and lower than 90%) |
| CON=C(C)CC1CC(OC(=O)N2CCOCC2)=C(c2c(C)cc(-c3ccc(Cl)cc3)cc2OC)C1=O (centres unmarked) [6-078, 2-(4′-chloro-3-methoxy-5-methyl-[1,1′-biphenyl]-4-yl)-4-{2-(methoxyimino)propyl}-3-oxocyclopent-1-ene-1-yl morpholine-4-carboxylate] | 5 (Herbicidal ratio of 90% or more (almost completely withered)) | 4 (Herbicidal ratio of 70% or higher and lower than 90%) | 2 (Herbicidal ratio of 20% or higher and lower than 40%) | 3 (Herbicidal ratio of 40% or higher and lower than 70%) | 0 (Herbicidal ratio of 5% or lower (almost no effect)) | 1 (Herbicidal ratio of 5% or higher and lower than 20%) | 0 (Herbicidal ratio of 5% or lower (almost no effect)) | 5 (Herbicidal ratio of 90% or more (almost completely withered)) | 4 (Herbicidal ratio of 70% or higher and lower than 90%) | 1 (Herbicidal ratio of 5% or higher and lower than 20%) | 3 (Herbicidal ratio of 40% or higher and lower than 70%) | 5 (Herbicidal ratio of 90% or more (almost completely withered)) | 0 (Herbicidal ratio of 5% or lower (almost no effect)) |  |  |  |  |  |
| CON=C(C)CC1CC(OCOC(=O)c2ccccc2)=C(c2c(C)cc(-c3ccc(Cl)cc3)cc2C)C1=O (centres unmarked) [6-083] | 4 (Herbicidal ratio of 70% or higher and lower than 90%) | 4 (Herbicidal ratio of 70% or higher and lower than 90%) | 3 (Herbicidal ratio of 40% or higher and lower than 70%) | 0 (Herbicidal ratio of 5% or lower (almost no effect)) | 0 (Herbicidal ratio of 5% or lower (almost no effect)) | 0 (Herbicidal ratio of 5% or lower (almost no effect)) | 0 (Herbicidal ratio of 5% or lower (almost no effect)) | 5 (Herbicidal ratio of 90% or more (almost completely withered)) | 4 (Herbicidal ratio of 70% or higher and lower than 90%) | 5 (Herbicidal ratio of 90% or more (almost completely withered)) | 4 (Herbicidal ratio of 70% or higher and lower than 90%) | 5 (Herbicidal ratio of 90% or more (almost completely withered)) | 0 (Herbicidal ratio of 5% or lower (almost no effect)) |  |  |  |  |  |
| CON=C(C)CC1CC(OC(=O)C(C)CSC)=C(c2c(C)cc(-c3ccc(Cl)cc3)cc2C)C1=O (centres unmarked) [6-086] | 2 (Herbicidal ratio of 20% or higher and lower than 40%) | 0 (Herbicidal ratio of 5% or lower (almost no effect)) | 4 (Herbicidal ratio of 70% or higher and lower than 90%) |  |  |  |  | 5 (Herbicidal ratio of 90% or more (almost completely withered)) | 5 (Herbicidal ratio of 90% or more (almost completely withered)) | 5 (Herbicidal ratio of 90% or more (almost completely withered)) | 5 (Herbicidal ratio of 90% or more (almost completely withered)) | 3 (Herbicidal ratio of 40% or higher and lower than 70%) | 5 (Herbicidal ratio of 90% or more (almost completely withered)) | 4 (Herbicidal ratio of 70% or higher and lower than 90%) | 0 (Herbicidal ratio of 5% or lower (almost no effect)) | 1 (Herbicidal ratio of 5% or higher and lower than 20%) | 4 (Herbicidal ratio of 70% or higher and lower than 90%) |  |
| CON=C(C)CC1CC(O)=C(c2c(C)cc(-c3cc(Cl)cc(Cl)c3)cc2C)C1=O (centres unmarked) [6-087] | 0 (Herbicidal ratio of 5% or lower (almost no effect)) | 0 (Herbicidal ratio of 5% or lower (almost no effect)) | 0 (Herbicidal ratio of 5% or lower (almost no effect)) |  |  |  |  | 5 (Herbicidal ratio of 90% or more (almost completely withered)) | 4 (Herbicidal ratio of 70% or higher and lower than 90%) | 0 (Herbicidal ratio of 5% or lower (almost no effect)) | 4 (Herbicidal ratio of 70% or higher and lower than 90%) | 0 (Herbicidal ratio of 5% or lower (almost no effect)) | 3 (Herbicidal ratio of 40% or higher and lower than 70%) | 0 (Herbicidal ratio of 5% or lower (almost no effect)) | 0 (Herbicidal ratio of 5% or lower (almost no effect)) | 0 (Herbicidal ratio of 5% or lower (almost no effect)) | 1 (Herbicidal ratio of 5% or higher and lower than 20%) |  |
